Experimental data as given in PMC8834192 (2022).

Columns and labels:
[1] = tested on: Z0 (DNA, aptamer) CTACCAGCTTTGAGGCTCGATCCAGCTTATTCAATTATACCAGCTTATTCAATTATACCAGC; experiment: UV-Vis absorbance at 260 nm of released strand; conditions: room temperature; partially complementary strand Z1 displaced from bead-bound Z0Z1
[2] = tested on: Z0 (DNA, aptamer) CTACCAGCTTTGAGGCTCGATCCAGCTTATTCAATTATACCAGCTTATTCAATTATACCAGC; experiment: circular dichroism; conditions: Z0Z1 partial duplex; Z1 (S3) displaced; buffer not stated

binding [1]: yes
binding [2]: yes
Structure (SMILES): C[C@H]1CCCC(=O)CCC/C=C/c2cc(O)cc(O)c2C(=O)O1
